Measurements as given in ChEMBL document CHEMBL3044616, “Synthesis, crystal structure and -glucuronidase inhibition activity of some new hydrazinecarboxamides and their 1,2,4-triazole derivatives” (Med Chem Res, 2012).
The source made the active and inactive calls. No cut-off for these calls is given here.

Key:
Escherichia coli = experiment: Inhibition of Escherichia coli beta-glucuronidase using para-nitrophenyl-beta-D-glucuronide as substrate at 0.2 mM incubated for 30 min prior to substrate addition measured for 30 min by spectrophotometric analysis
[1] = Inhibition of Escherichia coli beta-glucuronidase using para-nitrophenyl-beta-D-glucuronide as substrate incubated for 30 min prior to substrate addition measured for 30 min by spectrophotometric analysis

| SMILES | inhibition (Escherichia coli) | IC50 [1] |
| --- | --- | --- |
| COc1ccc(NC(=O)NNC(=O)CCc2ccccc2OC)cc1 | 87.9% | 15.5 µM |
| COc1cccc(-n2c(CCc3ccccc3OC)n[nH]c2=O)c1 | inactive |  |
| COc1ccc(Cc2n[nH]c(=O)n2-c2ccccc2OC)cc1 | inactive |  |
| COc1cccc(NC(=O)NNC(=O)CCc2ccccc2OC)c1 | 54.6% | 83.7 µM |
| COc1ccccc1Cc1n[nH]c(=O)n1-c1ccccc1OC | inactive |  |
| COc1ccc(CCC(=O)NNC(=O)Nc2cccc(OC)c2)cc1 | 59.3% | 96.7 µM |
| COc1ccc(CCc2n[nH]c(=O)n2-c2cccc(OC)c2)cc1 | inactive |  |
| COc1ccc(CC(=O)NNC(=O)Nc2ccccc2OC)cc1 | 94.5% | 16.8 µM |
| COc1cccc(CCc2n[nH]c(=O)n2-c2cccc(OC)c2)c1 | inactive |  |
| COc1cccc(CCc2n[nH]c(=O)n2-c2ccccc2OC)c1 | inactive |  |
| COc1cccc(CCC(=O)NNC(=O)Nc2cccc(OC)c2)c1 | 52% | 179 µM |
| COc1cccc(-n2c(Cc3ccccc3OC)n[nH]c2=O)c1 | inactive |  |
| COc1ccc(CCc2n[nH]c(=O)n2-c2ccccc2OC)cc1 | inactive |  |
| COc1ccccc1CC(=O)NNC(=O)Nc1ccccc1OC | 88.8% | 40.7 µM |
| COc1ccccc1CCc1n[nH]c(=O)n1-c1ccccc1OC | inactive |  |
| COc1cccc(CCC(=O)NNC(=O)Nc2ccccc2OC)c1 | 82.9% | 52.4 µM |
| COc1ccc(-n2c(CCc3ccccc3OC)n[nH]c2=O)cc1 | inactive |  |
| COc1cccc(Cc2n[nH]c(=O)n2-c2ccccc2OC)c1 | inactive |  |
| COc1cccc(CC(=O)NNC(=O)Nc2cccc(OC)c2)c1 | 70.8% | 101 µM |
| O=C(O)[C@@H](O)[C@H]1OC(=O)[C@H](O)[C@H]1O | 86.2% |  |
| COc1cccc(CC(=O)NNC(=O)Nc2ccccc2OC)c1 | 68.3% | 134 µM |
| COc1ccc(NC(=O)NNC(=O)CCc2cccc(OC)c2)cc1 | 73.3% | 74.5 µM |
| COc1ccc(CCC(=O)NNC(=O)Nc2ccccc2OC)cc1 | 83.7% | 46.1 µM |
| COc1cccc(NC(=O)NNC(=O)Cc2ccccc2OC)c1 | 46.5% |  |
| COc1ccccc1CCC(=O)NNC(=O)Nc1ccccc1OC | 77.6% | 67.3 µM |
| COc1cccc(Cc2n[nH]c(=O)n2-c2cccc(OC)c2)c1 | inactive |  |
